These results are taken from US20250332138A1, “PHARMACEUTICAL COMPOSITION FOR PREVENTING OR TREATING MENTAL DISORDER” (Vivozon, Inc., priority 2022, published 2025).

SMILES strings stand for the structures.

Test [1] deals with male Sprague-Dawley rats. Put plainly: Acquisition of morphine intravenous self-administration (prevention of drug addiction). It counts as in vivo, rat. Particulars: 8 days, vs solvent control. How it is done: The experimental animals and the experimental methods for intravenous self-administration were performed in a similar manner to Example 1, and Test Compounds A and C were used as the test compounds.
To investigate the preventive effect of the test compounds on morphine addiction, rats recovering from surgery were subjected to morphine intravenous self-administration (IVSA) for eight (8) consecutive days, with 2-hours sessions each day, using a fixed ratio of 1 (FR1) (0.1 mg/kg/infusion, 0.1 mL delivered within 4 seconds). Test compounds A and C were dissolved in water containing 0.5% HPMC (hydroxypropyl methylcellulose) and 1% Tween 80, and administered orally at doses of 5 mg/kg and 100 mg/kg, respectively, 2 hours before morphine IVSA. The preventive effects on acquisition of morphine IVSA were measured, and the results are represented in FIGS. 4 and 5.

Test [2] concerns the target T1, mGluR5 (Homo sapiens, UniProt P41594).
T1 construct: expressed in transfected cells; host or cells: HEK293
Put plainly: Fluorescence-based Ca2+ mobilization assay. As to conditions: HEK293 cell line overexpressing mGluR5; L-glutamate at EC80; Ca2+ level, FLIPR. As to the method:
In order to measure the activity on the mGluR5, an experiment was carried out to check the change in the intracellular Ca^2+ level using the HEK293 cell line permenantly overexpressing the mGluR5. The cells in the cell culture medium were aliquoted into a 384-well plate coated with poly-D-lysine and cultured in a 37° C. incubator supplied with 5% CO2. The next day, the medium was removed and a dye loading buffer—in which a reagent capable of measuring Ca^2+ was dissolved—was added, and then incubated at 37° C. for 60 minutes. The test compounds were dissolved in 100% DMSO at a final concentration of 10 mM to make a stock solution. The starting concentration of 10 μM was prepared from the stock solution, followed by serial dilutions to prepare working solutions (test compound working solutions). The test compound working solutions were added to the cells that were incubated in the dye loading buffer, which were maintained for 30 minutes at room temperature in a light-shielding state before measurement. The Ca^2+ level change induced by L-glutamate at EC80 concentration was measured for 2 minutes using FLIPR Tetra (MDS Analytical Technologies). The fluorescent Ca^2+ signal values in the presence of the test compounds were normalized to the fluorescent singal elicited by EC80 concentration of L-glutamate as 100% and that elicited by vehicle as 0% to estimate % inhibition of the test compounds. The efficacy of the test compounds was calculated as IC50 values and represented in Table 2. (+: 500-1,000 nM, ++: 100-500 nM, +++: less than 100 nM).

In test [3] the target is T2, human 5-HT2A receptor (Homo sapiens, UniProt P28223).
T2 construct: expressed in transfected cells; host or cells: HEK293
T2 sequence (P28223 whole entry): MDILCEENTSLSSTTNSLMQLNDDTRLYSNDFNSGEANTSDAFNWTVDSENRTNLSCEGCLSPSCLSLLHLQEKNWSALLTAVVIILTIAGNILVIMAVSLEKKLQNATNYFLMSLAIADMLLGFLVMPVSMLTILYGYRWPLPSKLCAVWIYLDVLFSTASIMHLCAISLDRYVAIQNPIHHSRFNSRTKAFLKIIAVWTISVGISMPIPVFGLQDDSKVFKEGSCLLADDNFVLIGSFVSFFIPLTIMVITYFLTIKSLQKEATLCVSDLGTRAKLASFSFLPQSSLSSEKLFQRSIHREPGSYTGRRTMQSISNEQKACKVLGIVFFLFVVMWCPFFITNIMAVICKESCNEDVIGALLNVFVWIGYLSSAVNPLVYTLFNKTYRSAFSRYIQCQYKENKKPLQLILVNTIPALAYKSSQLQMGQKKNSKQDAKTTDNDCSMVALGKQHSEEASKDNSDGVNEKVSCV
Put plainly: HTRF-based IP1 accumulation assay. Particulars: HEK293 cell line overexpressing human 5-HT2A receptor; serotonin at EC80; IP1 production; read-out: Human 5-HT2AR (IC50). How it is done: The 5-HT2A receptor antagonistic effect of the test compounds was confirmed by measuring the production amount of IP1 using the HEK293 cell line permanently overexpressing the human 5-HT2A receptor. The test compounds were dissolved in 100% DMSO to a final concentration of 10 mM. The starting concentration of 10 μM was prepared from the stock solution, followed by serial dilutions to prepare working solutions in a buffer containing lithium chloride (LiCl). The cells and compounds prepared in the test buffer were placed in a 96-well plate and incubated at room temperature for 10 minutes. Serotonin of EC80 concentration was added, followed by incubation at 37° C. for 30 minutes in a light-shielding state. To measure IP1 accumulation in cells, IP1-d2 acceptor and IP1-Cryptate donor—which are HTRF-based substances for fluorescence signals—were added and incubated for 1 hour at room temperature in a light-shielded state. The fluorescent emission signals of acceptor and donor were detected, and HTRF ratio values were substracted by mean value of serotonin control. The percentage of activation was calculated by normalization of the serotonin control (0%) and IP1 control (100%). The IC50 values of the test compounds are represented in Table 2. (+: 500-1,000 nM, ++: 100-500 nM, +++: less than 100 nM).

The test system of test [4] is neurons in the ventral tegmental area. Particulars: cited from earlier work.
The test system of test [5] is mouse. As to conditions: mouse tail suspension test; cited from earlier work.
The subject of test [6] is amygdala. Particulars: cited from earlier work.
The test system of test [7] is test animals. As to conditions: injected into the amygdala; cited from earlier work.
The test system of test [8] is test animals. As to conditions: injected into the amygdala; cited from earlier work. The source holds these as a separate data set.
Test [9] deals with rat. As to conditions: rat forced swim test; cited from earlier work.
Test [10] relates to cocaine-addicted rats. Particulars: cited from earlier work.
Test [11] relates to patients with cocaine use disorder. Particulars: 68 patients with cocaine use disorder; cited from earlier work.

T1 sequence (P41594 21-1212): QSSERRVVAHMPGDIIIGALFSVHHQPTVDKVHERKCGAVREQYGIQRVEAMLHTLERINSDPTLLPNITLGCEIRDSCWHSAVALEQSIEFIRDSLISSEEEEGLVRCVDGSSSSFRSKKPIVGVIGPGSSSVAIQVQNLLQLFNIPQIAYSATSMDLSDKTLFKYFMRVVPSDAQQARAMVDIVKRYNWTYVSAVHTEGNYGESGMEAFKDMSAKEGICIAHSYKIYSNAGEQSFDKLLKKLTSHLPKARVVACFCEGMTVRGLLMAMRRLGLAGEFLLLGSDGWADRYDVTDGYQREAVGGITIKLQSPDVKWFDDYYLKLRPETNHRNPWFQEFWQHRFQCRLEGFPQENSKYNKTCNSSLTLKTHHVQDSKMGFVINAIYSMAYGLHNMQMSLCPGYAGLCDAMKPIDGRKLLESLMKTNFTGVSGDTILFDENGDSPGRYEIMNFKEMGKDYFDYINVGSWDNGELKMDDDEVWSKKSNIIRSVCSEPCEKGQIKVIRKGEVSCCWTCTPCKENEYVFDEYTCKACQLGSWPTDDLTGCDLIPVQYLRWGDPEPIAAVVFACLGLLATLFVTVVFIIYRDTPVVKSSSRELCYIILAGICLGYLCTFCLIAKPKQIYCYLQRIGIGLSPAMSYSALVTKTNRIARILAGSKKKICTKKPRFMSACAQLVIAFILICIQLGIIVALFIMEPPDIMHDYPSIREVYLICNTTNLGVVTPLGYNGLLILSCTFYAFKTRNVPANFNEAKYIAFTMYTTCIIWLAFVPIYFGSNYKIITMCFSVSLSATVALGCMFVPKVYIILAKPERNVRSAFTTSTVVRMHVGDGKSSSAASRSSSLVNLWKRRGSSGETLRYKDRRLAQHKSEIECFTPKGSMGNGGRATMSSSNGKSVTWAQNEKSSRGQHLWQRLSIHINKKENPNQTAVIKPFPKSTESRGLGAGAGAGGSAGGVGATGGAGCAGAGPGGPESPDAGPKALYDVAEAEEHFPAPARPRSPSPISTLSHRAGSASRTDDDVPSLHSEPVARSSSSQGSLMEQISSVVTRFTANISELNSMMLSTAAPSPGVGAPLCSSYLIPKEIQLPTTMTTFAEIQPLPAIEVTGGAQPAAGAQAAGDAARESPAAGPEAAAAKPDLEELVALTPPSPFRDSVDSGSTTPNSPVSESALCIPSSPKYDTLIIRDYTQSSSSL

Regarding `O=C(NCC1CCOCC1)c1ccc(C#Cc2ccccc2F)cc1` [Compound 1, 4-((2-fluorophenyl)ethynyl)-N-((tetrahydro-2H-pyran-4-yl)methyl)benzamide], the “number of injections (acquisition of morphine self-administration)” value in test [1] (100 mg/kg orally 2 hours before morphine IVSA, FIG. 5) was “significantly lower”. In the case of `CC1(CNC(=O)c2ccc(C#Cc3ccccc3F)cc2)COC1` [Compound 6, 4-((2-fluorophenyl)ethynyl)-N-((3-methyloxetan-3-yl)methyl)benzamide], the “number of injections (acquisition of morphine self-administration)” value in test [1] (5 mg/kg orally 2 hours before morphine IVSA, FIG. 4) is reported as “significantly lower”.

Take `CC1(O)CC(CNC(=O)c2ccc(C#Cc3ccccc3F)cc2)C1` (stereo not drawn) [Compound 12, 4-((2-fluorophenyl)ethynyl)-N-(((1s,3s)-3-hydroxy-3-methylcyclobutyl)methyl)benzamide]: the IC50 in [2] is less than 100 nM; in test [3], 100 to 500 nM. Take `[2H]C(NC(=O)c1ccc(C#Cc2ccccc2F)cc1)C1(C)COC1` (stereo not drawn) [Compound 16, 4-((2-fluorophenyl)ethynyl)-N-((3-methyloxetan-3-yl)methyl-d)benzamide]: the IC50 in test [3] was 100 to 500 nM. In test [2], `O=C(NC[C@H]1CCOC1)c1ccc(C#Cc2ccc(F)cc2F)cc1` [Compound 18, (R)-4-((2,4-difluorophenyl)ethynyl)-N-((tetrahydrofuran-3-yl)methyl)benzamide] yielded an IC50 of 100 to 500 nM. Compound `O=C(NC[C@@H]1CCOC1)c1ccc(C#Cc2ccc(F)cc2F)cc1` [Compound 19, (S)-4-((2,4-difluorophenyl)ethynyl)-N-((tetrahydrofuran-3-yl)methyl)benzamide] displayed an IC50 in [2] of 100 to 500 nM.

Consider `CC1(CNC(=O)c2ccc(C#Cc3ccc(F)cc3F)cc2)CCOCC1` [Compound 24, 4-((2,4-difluorophenyl)ethynyl)-N-((4-methyltetrahydro-2H-pyran-4-yl)methyl)benzamide], for which the figures for the IC50 in test [2] and in [3] were less than 100 nM and 100 to 500 nM, respectively. As to `O=C(NCCC1CCOCC1)c1ccc(C#Cc2ccc(F)cc2F)cc1` [Compound 25, 4-((2,4-difluorophenyl)ethynyl)-N-(2-(tetrahydro-2H-pyran-4-yl)ethyl)benzamide], the IC50 in test [2] was 100 to 500 nM; in test [3] it was less than 100 nM. Consider `O=C(NCC1(O)CCCCC1)c1ccc(C#Cc2ccc(F)cc2)cc1` [Compound 26, 4-((4-fluorophenyl)ethynyl)-N-((1-hydroxycyclohexyl)methyl)benzamide], for which the IC50 in test [2] is less than 100 nM; in test [3], 100 to 500 nM. `O=C(NCC1(O)CCC1)c1ccc(C#Cc2ccc(F)cc2)cc1` [Compound 27, 4-((4-fluorophenyl)ethynyl)-N-((1-hydroxycyclobutyl)methyl)benzamide]: the IC50 in test [2] and in [3] was less than 100 nM each time. Turning to `O=C(NCC1(O)CCCCC1)c1ccc(C#Cc2ccc(F)cc2F)cc1` [Compound 28, 4-((2,4-difluorophenyl)ethynyl)-N-((1-hydroxycyclohexyl)methyl)benzamide], the IC50 is 500 to 1000 nM in test [2] and 100 to 500 nM in [3].

Consider `O=C(NCC1(O)CCC1)c1ccc(C#Cc2ccc(F)cc2F)cc1` [Compound 29, 4-((2,4-difluorophenyl)ethynyl)-N-((1-hydroxycyclobutyl)methyl)benzamide], for which the IC50 in test [2] was 100 to 500 nM; in [3] it was less than 100 nM.

On to `O=C(NCC1CCC1)c1ccc(C#Cc2ccc(F)cc2F)cc1` [Compound 30, N-(cyclobutylmethyl)-4-((2,4-difluorophenyl)ethynyl)benzamide], for which the IC50 in [2] and in test [3] was 100 to 500 nM each time.

`COc1cccc([C@H](O)C2CCN(CCc3ccc(F)cc3)CC2)c1OC` [Compound M100907]: the dopamine secretion result in [4] was “inhibited”. In the case of `COc1cc(CC(C)N)c(OC)cc1I` (stereo not drawn) [DOI, 1-[2,5-dimethoxy-4-iodophenyl]-2-aminopropane], the dopamine secretion result in [4] is given as “promoted dopamine secretion”.

Turning to `Cc1cccc(C#Cc2ccccc2)n1` [MPEP], in test [5], the immobility time result is “decreased immobility time in a dose-dependent manner”. The “formation of long-term potentiation (LTP) in the amygdala” value in test [6] was “inhibiting”. Further, in test [7], the “number of entries into the open arm” value is listed as “increased” and the “time the test animals spend in the open arm” value was “increased”. In [8], the “time the test animals spend in the bright area” value is given as “increased”. Take `Cc1nc(C#Cc2cccnc2)cs1` [MTEP, 3-[(2-methyl-1,3-thiazol-4-yl)ethynyl]pyridine]: the immobility time entry in [9] is reported as “reducing immobility time”. On to `O=C(c1ccc(F)cc1)C1CCN(CCn2c(=O)[nH]c3ccccc3c2=O)CC1` [ketanserin], for which, in [4] (pretreatment), the “cocaine-induced increase in dopamine” value is reported as “suppressed”. For the same compound, the “self-administration restored by signal stimulation” value in test [10] was “reduced”. Turning to `COC(=O)N1CC[C@@H]2[C@H]1CCC[C@@]2(O)C#Cc1cccc(C)c1` [mavoglurant], the clinical efficacy result in test [11] is on record as “confirmed”.

Take `Cc1nc2sccn2c(=O)c1CCN1CCC(=C(c2ccc(F)cc2)c2ccc(F)cc2)CC1` [ritanserin]: the dopamine secretion result in [4] is listed as “inhibited”.
